Where “and” joins values, the source holds several entries; their conditions need not be identical. Equal values may be shown once. Toxic doses and inconclusive results are not listed.
Tested on: CD2F1 mice, L1210 leukemia ip, survival T/C
Assay: NCI In Vivo Anticancer Drug Screen. Data for tumor model L1210 Leukemia (intraperitoneal) in CD2F1 (CDF1) mice
Details: higher = longer survival
Method in brief: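 Implant tumor; dose compound or vehicle; measure endpoint in both groups; report treated divided by control.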

[1] = endpoint: mean survival time, dose: 6.25 mg/kg/injection, schedule: Q01DX009 (ip), vehicle: other
[2] = endpoint: mean survival time, dose: 100.0 mg/kg/injection, schedule: Q01DX001 (ip), vehicle: saline
[3] = endpoint: mean survival time, dose: 200.0 mg/kg/injection, schedule: Q01DX001 (ip), vehicle: saline
[4] = endpoint: mean survival time, dose: 400.0 mg/kg/injection, schedule: Q01DX001 (ip), vehicle: saline
[5] = endpoint: mean survival time, dose: 100.0 mg/kg/injection, schedule: Q01DX009 (ip), vehicle: saline with Tween-80
[6] = endpoint: mean survival time, dose: 100.0 mg/kg/injection, schedule: Q04DX003 (ip), vehicle: saline with Tween-80
[7] = endpoint: mean survival time, dose: 200.0 mg/kg/injection, schedule: Q01DX009 (ip), vehicle: saline with Tween-80
[8] = endpoint: mean survival time, dose: 200.0 mg/kg/injection, schedule: Q04DX003 (ip), vehicle: saline with Tween-80
[9] = endpoint: mean survival time, dose: 400.0 mg/kg/injection, schedule: Q01DX009 (ip), vehicle: saline with Tween-80
[10] = endpoint: mean survival time, dose: 400.0 mg/kg/injection, schedule: Q04DX003 (ip), vehicle: saline with Tween-80

## C=CCOP(=O)(OCC=C)C(Cl)(Cl)Cl
endpoint: mean survival time, dose: 75.0 mg/kg/injection, schedule: Q01DX001 (ip), vehicle: other
  T/C: 109 % of control
endpoint: mean survival time, dose: 150.0 mg/kg/injection, schedule: Q01DX001 (ip), vehicle: other
  T/C: 97 % of control
endpoint: mean survival time, dose: 300.0 mg/kg/injection, schedule: Q01DX001 (ip), vehicle: other
  T/C: 109 % of control

## O=C(/C=C/c1cccnc1)/C=C/c1cccnc1
[1]
  T/C: 105 % of control
endpoint: mean survival time, dose: 12.5 mg/kg/injection, schedule: Q01DX009 (ip), vehicle: other
  T/C: 105 % of control
endpoint: mean survival time, dose: 12.5 mg/kg/injection, schedule: Q04DX003 (ip), vehicle: acetone
  T/C: 104 % of control
endpoint: mean survival time, dose: 25.0 mg/kg/injection, schedule: Q01DX009 (ip), vehicle: other
  T/C: 107 % of control
endpoint: mean survival time, dose: 25.0 mg/kg/injection, schedule: Q04DX003 (ip), vehicle: acetone
  T/C: 103 % of control
endpoint: median survival time, dose: 3.13 mg/kg/injection, schedule: Q01DX005 (ip), vehicle: Klucel (hydroxypropylcellulose) (HPC)
  T/C: 102 % of control
endpoint: median survival time, dose: 6.25 mg/kg/injection, schedule: Q01DX005 (ip), vehicle: Klucel (hydroxypropylcellulose) (HPC)
  T/C: 97 % of control
endpoint: median survival time, dose: 12.5 mg/kg/injection, schedule: Q01DX005 (ip), vehicle: Klucel (hydroxypropylcellulose) (HPC)
  T/C: 95 % of control
endpoint: median survival time, dose: 25.0 mg/kg/injection, schedule: Q01DX005 (ip), vehicle: Klucel (hydroxypropylcellulose) (HPC)
  T/C: 98 % of control
endpoint: median survival time, dose: 50.0 mg/kg/injection, schedule: Q01DX005 (ip), vehicle: Klucel (hydroxypropylcellulose) (HPC)
  T/C: 100 % of control

## NC(=O)c1cc(Cl)nc2nc(Cl)nc(N)c12
endpoint: median survival time, dose: 25.0 mg/kg/injection, schedule: Q01DX009 (ip), vehicle: saline with Tween-80
  T/C: 89 % of control
endpoint: median survival time, dose: 50.0 mg/kg/injection, schedule: Q01DX009 (ip), vehicle: saline with Tween-80
  T/C: 94 % of control
endpoint: median survival time, dose: 100.0 mg/kg/injection, schedule: Q01DX009 (ip), vehicle: saline with Tween-80
  T/C: 100 % of control
endpoint: median survival time, dose: 200.0 mg/kg/injection, schedule: Q01DX009 (ip), vehicle: saline with Tween-80
  T/C: 100 % of control
endpoint: median survival time, dose: 400.0 mg/kg/injection, schedule: Q01DX009 (ip), vehicle: saline with Tween-80
  T/C: 101 % of control

## C[C@H]1CN1C1=CC(=O)C(N2C[C@@H]2C)=CC1=O
endpoint: mean survival time, dose: 3.13 mg/kg/injection, schedule: Q01DX009 (ip), vehicle: other
  T/C: 183 % of control
endpoint: mean survival time, dose: 4.69 mg/kg/injection, schedule: Q01DX009 (ip), vehicle: other
  T/C: 168 % of control
[1]
  T/C: 123 % of control
endpoint: mean survival time, dose: 12.6 mg/kg/injection, schedule: Q01DX001 (ip), vehicle: other
  T/C: 116 % of control
endpoint: mean survival time, dose: 18.7 mg/kg/injection, schedule: Q04DX003 (ip), vehicle: saline with Tween-80
  T/C: 98 % of control

## N#CC(C#N)=Cc1cccc2ccccc12
endpoint: mean survival time, dose: 50.0 mg/kg/injection, schedule: Q04DX003 (ip), vehicle: Klucel (hydroxypropylcellulose) (HPC)
  T/C: 98 % of control
endpoint: mean survival time, dose: 100.0 mg/kg/injection, schedule: Q04DX003 (ip), vehicle: Klucel (hydroxypropylcellulose) (HPC)
  T/C: 103 % of control
endpoint: mean survival time, dose: 200.0 mg/kg/injection, schedule: Q04DX003 (ip), vehicle: Klucel (hydroxypropylcellulose) (HPC)
  T/C: 101 % of control

## O=P(OCCCCl)(OCCCCl)C(Cl)Cl
[2]
  T/C: 102 % of control
[3]
  T/C: 102 % of control
[4]
  T/C: 103 % of control

## CCCCC#CC(=O)CCCCC
endpoint: mean survival time, dose: 50.0 mg/kg/injection, schedule: Q01DX009 (ip), vehicle: saline with Tween-80
  T/C: 97 % of control
[5]
  T/C: 102 % of control

## COc1cccc2c1C(=O)c1c(O)c3c(c(O)c1C2=O)CC(O)(/C(C)=N/NC(=O)CCC(=O)N/N=C(\C)C1(O)Cc2c(O)c4c(c(O)c2C(OC2CC(N)C(O)C(C)O2)C1)C(=O)c1c(OC)cccc1C4=O)CC3OC1CC(N)C(O)C(C)O1 (stereo not given)
endpoint: mean survival time, dose: 0.39 mg/kg/injection, schedule: Q01DX009 (ip), vehicle: water
  T/C: 102 % of control
endpoint: mean survival time, dose: 0.78 mg/kg/injection, schedule: Q01DX009 (ip), vehicle: water
  T/C: 106 % of control
endpoint: mean survival time, dose: 1.56 mg/kg/injection, schedule: Q01DX009 (ip), vehicle: water
  T/C: 113 % of control and 101 % of control
endpoint: mean survival time, dose: 3.13 mg/kg/injection, schedule: Q01DX009 (ip), vehicle: water
  T/C: 106 % of control and 111 % of control
endpoint: mean survival time, dose: 6.25 mg/kg/injection, schedule: Q01DX009 (ip), vehicle: water
  T/C: 118 % of control
endpoint: mean survival time, dose: 12.5 mg/kg/injection, schedule: Q01DX009 (ip), vehicle: water
  T/C: 150 % of control
endpoint: mean survival time, dose: 25.0 mg/kg/injection, schedule: Q01DX009 (ip), vehicle: water
  T/C: 111 % of control

## C/C=N\N=C(N)N
endpoint: mean survival time, dose: 30.0 mg/kg/injection, schedule: Q01DX010 (ip), vehicle: saline
  T/C: 96 % of control
endpoint: mean survival time, dose: 60.0 mg/kg/injection, schedule: Q01DX009 (ip), vehicle: saline
  T/C: 96 % of control
endpoint: mean survival time, dose: 120.0 mg/kg/injection, schedule: Q01DX010 (ip), vehicle: saline
  T/C: 91 % of control
endpoint: mean survival time, dose: 240.0 mg/kg/injection, schedule: Q01DX009 (ip), vehicle: saline
  T/C: 93 % of control
endpoint: mean survival time, dose: 480.0 mg/kg/injection, schedule: Q01DX009 (ip), vehicle: saline
  T/C: 93 % of control

## Cc1cc(C)c(C)c(C(O)(C(=O)O)c2ccccc2)c1 (stereo not given)
[5]
  T/C: 100 % of control
[6]
  T/C: 97 % of control
[7]
  T/C: 88 % of control
[8]
  T/C: 101 % of control
[9]
  T/C: 96 % of control
[10]
  T/C: 92 % of control

## Cc1nc(C)c(C(=O)O)cc1C(=O)O
endpoint: mean survival time, dose: 100.0 mg/kg/injection, schedule: Q04DX003 (ip), vehicle: saline
  T/C: 102 % of control
endpoint: mean survival time, dose: 200.0 mg/kg/injection, schedule: Q04DX003 (ip), vehicle: saline
  T/C: 96 % of control
endpoint: mean survival time, dose: 400.0 mg/kg/injection, schedule: Q04DX003 (ip), vehicle: saline
  T/C: 98 % of control

## O=[N+]([O-])c1ccc(N/N=C2/C3CCC(C3)C2C(O)(C(F)(F)F)C(F)(F)F)c([N+](=O)[O-])c1 (stereo not given)
endpoint: mean survival time, dose: 50.0 mg/kg/injection, schedule: Q04DX003 (ip), vehicle: saline with Tween-80
  T/C: 94 % of control
[6]
  T/C: 95 % of control
[8]
  T/C: 94 % of control
[10]
  T/C: 103 % of control

## Cc1cc(NC(=O)CCc2ccc(N)cc2)ccc1S(=O)(=O)F
endpoint: mean survival time, dose: 25.0 mg/kg/injection, schedule: Q01DX009 (ip), vehicle: Klucel (hydroxypropylcellulose) (HPC)
  T/C: 110 % of control
endpoint: mean survival time, dose: 50.0 mg/kg/injection, schedule: Q01DX009 (ip), vehicle: Klucel (hydroxypropylcellulose) (HPC)
  T/C: 98 % of control
endpoint: mean survival time, dose: 100.0 mg/kg/injection, schedule: Q01DX009 (ip), vehicle: Klucel (hydroxypropylcellulose) (HPC)
  T/C: 108 % of control
endpoint: mean survival time, dose: 200.0 mg/kg/injection, schedule: Q01DX009 (ip), vehicle: Klucel (hydroxypropylcellulose) (HPC)
  T/C: 94 % of control and 106 % of control

## Clc1ccc2c(Cl)c3c(nc2c1)CCCC3
[2]
  T/C: 100 % of control
[3]
  T/C: 100 % of control

## Cc1ccc([N+](=O)[O-])cc1NC(=O)NNC(=O)CNC(=O)Nc1cccc(C(F)(F)F)c1
[5]
  T/C: 92 % of control
[7]
  T/C: 89 % of control
[9]
  T/C: 96 % of control

## COC(=O)C1CCCCCC1=O (stereo not given)
[6]
  T/C: 96 % of control
[8]
  T/C: 94 % of control
[10]
  T/C: 88 % of control

## CC(=O)c1ccc(N=C=O)cc1
endpoint: mean survival time, dose: 25.0 mg/kg/injection, schedule: Q01DX001 (ip), vehicle: saline with Tween-80
  T/C: 100 % of control
endpoint: mean survival time, dose: 50.0 mg/kg/injection, schedule: Q01DX001 (ip), vehicle: saline with Tween-80
  T/C: 88 % of control
endpoint: mean survival time, dose: 100.0 mg/kg/injection, schedule: Q01DX001 (ip), vehicle: saline with Tween-80
  T/C: 92 % of control

## NNc1nc2c(=O)[nH]cnc2n1C1OC(CO)C(O)C1O (stereo not given)
endpoint: mean survival time, dose: 12.5 mg/kg/injection, schedule: Q01DX005 (ip), vehicle: distilled water + Tween-80
  T/C: 98 % of control
endpoint: mean survival time, dose: 25.0 mg/kg/injection, schedule: Q01DX005 (ip), vehicle: distilled water + Tween-80
  T/C: 98 % of control
endpoint: mean survival time, dose: 50.0 mg/kg/injection, schedule: Q01DX005 (ip), vehicle: distilled water + Tween-80
  T/C: 100 % of control
endpoint: mean survival time, dose: 100.0 mg/kg/injection, schedule: Q01DX005 (ip), vehicle: distilled water + Tween-80
  T/C: 107 % of control
endpoint: mean survival time, dose: 200.0 mg/kg/injection, schedule: Q01DX005 (ip), vehicle: distilled water + Tween-80
  T/C: 104 % of control

## O=C(O)C1(C(=O)O)CC2CC=CCC2C1 (stereo not given)
endpoint: mean survival time, dose: 100.0 mg/kg/injection, schedule: Q01DX009 (ip), vehicle: saline
  T/C: 98 % of control
endpoint: mean survival time, dose: 200.0 mg/kg/injection, schedule: Q01DX009 (ip), vehicle: saline
  T/C: 100 % of control
endpoint: mean survival time, dose: 400.0 mg/kg/injection, schedule: Q01DX009 (ip), vehicle: saline
  T/C: 87 % of control

## COc1ccc2c(c1)C1(C)CCC(=O)C(C)C1CC2 (stereo not given)
[2]
  T/C: 94 % of control
[3]
  T/C: 96 % of control
[4]
  T/C: 96 % of control

## COc1ccc(-c2c(C(=O)O)cc(O)c3cc(OC)c(OC)cc23)cc1OC
[2]
  T/C: 97 % of control
[3]
  T/C: 97 % of control
[4]
  T/C: 92 % of control
